According to patent US4443448A, “Indane derivatives, pharmaceutical compositions thereof and method of preparation” (priority 1980, dated 1984):

Assays:
[1] = tested on: 3H-DA uptake in striatal synaptosomes; test: 3H-DA uptake in striatal synaptosomes in vitro; type: biochemical, rats; details: rat striatal synaptosomes, 12.5 nM 3H-DA, 37° C., pH 7.4
Procedure: ^3 H-DA uptake in striatal synaptosomes in vitro
0.32 M sucrose containing 1 mM Nialamide
Millipore filters (HAWPO 2500, 0.45μ)
3,4-dihydroxyphenylethylamine[ethyl-1-^3 H(N)]=^3 H-DA spc. act. app. 15 Ci/mmol, New England Nuclear Thomas Tissue Grinder, clearance 0.004-0.006 inch.
Rats are killed by a blow to their head, exsanguinated and their brains removed. The brain is placed on a precooled glassplate, and the two corpura striata are dissected out and gently homogenized in 40 volumes of ice cold 0.32 M sucrose containing 1 mM of nialamide using a hand homogenizer with teflon pestle. The P2 -fraction (synaptosomal fraction) is obtained by centrifugation (600 g, 10 min., 25000 g, 55 min. 4° C.) and suspended in 40 volumes of a modified Krebs-Ringer-phosphate buffer, pH 7.4. To 200 μl of the synaptosomal fraction on ice are added 3700 μl modified Krebs-Ringer-phosphate buffer--containing test compounds. After a preincubation at 37° C. for 5 min. […] The incubation is terminated by filtering the samples under vacuum through Millipore filters with a wash of 5 ml buffer containing 10 μM of unlabelled DA. After solubilizing the filters in 1 ml of cellosolve the radioactivity is determined by liquid scintillation counting after the addition of 10 ml of Insta-Gel. The unspecific binding of ^3 H-DA is determined by incubating control samples on ice instead of at 37° C.
All experiments are performed in triplicate.
The mean of all control samples and ice samples are calculated. […] The IC50-values are determined as the concentrations, at which the uptake are 50 percent of the uptake in control samples-uptake in ice samples.

[2] = tested on: methylphenidate; test: Methylphenidate antagonism in mice; type: in vivo; details: for ED50: Mus musculus, ip, 2 h, read-out: MePh antag. ED50 2 hr i.p., mice, test substance i.p., 2 hr before methylphenidate 60 mg/kg s.c.
Procedure: Methylphenidate antagonism (ED50 mg/kg i.p.)
(§1) Perspex observation cages without bottom and lid, consisting of 5 sections each measuring 12×25×30 cm.
3×2 mice are used for each dose level. Two or 24 hours after injection of test substance, methylphenidate, 60 mg/kg, is injected s.c. After administration of methylphenidate the mice are placed in the observation cages, 2 in each cage, where they remain for exactly 1 hour. The cages were placed on corrugated paper, the corrugations facing upwards. It is examined whether the mice have been biting the corrugated paper or not. […] If one or more of the control pairs have not been biting, the test has to be repeated on a new set of mice.
The result is stated in fractions: 0/3, 1/3, 2/3 and 3/3 where 0, 1, 2 and 3 are the number of pairs which have not been biting on receipt of the dose in question.

[3] = in vivo; set-up: species or system rats; details: for Ratio catalep./Amphet.: catalepsy ED50 / amphetamine antagonism ED50; for ED50: rat, in vivo, po, read-out: Catalep. (catalepsy wire mesh, rat, max, ED50)
Procedure: A vertical wire netting (50 cm×49 cm). The meshes (openings) of the netting are square (1 cm×1 cm). The wire diameter is 2 mm.
The animals are labeled and used in groups of five. The test substance is administered orally (p.o) at 4 dose levels selected from the fixed dose scale.
The animals are placed in the middle of the vertical wire netting 60, 120, 180, 240, 300 and 360 minutes after administration of the test compound. The animals are considered cataleptic when they remain immobile during a period of 15 seconds.
This cataleptic reaction is designated +. If the rats are "atonic" and passively slide down the wire mesh they are considered not cataleptic. If the animals climb up and down the wire mesh they are nor cataleptic.
In both situations the designation--is used.

[4] = tested on: amphetamine; test: Amphetamine antagonism in rats; type: in vivo; details: rats, p.o., amphetamine 10 mg/kg base i.v.; for ED50: Rattus norvegicus, po, read-out: Amphetamine antag. ED50 p.o.
Procedure: Amphetamine antagonism (ED50 mg/kg i.p.)
as §1
The test substance is given p.o. in a reasonable dose based on the determined LD50. Two or 24 hours later an intravaneous injection of amphetamine sulphate 13.6 mg/kg (10 mg/kg amphetamine base) is given, after which the rats are placed individually in the cages. The cages are placed on white corrugated paper. Five rats are used for each dose level. Observations are made after 55 minutes and 65 minutes-observation time: 1 minute. The animals are observed for stereotypy (movements of the head, compulsive gnawing). […] If the compound has full antagonistic effect another group of rats is used at a lower dose. […] The result is stated as fractions: 0/5, 1/5, 2/5, 3/5, 4/5 and 5/5, where 0, 1, 2, 3, 4 and 5 indicate the number of rats which have not shown stereotypy at the dose in question. The results are calculated as ED50 in mg/kg.

[5] = in vivo; details: iv
[6] = Mouse grid shock (analgesia); type: in vivo; details: mice, minimal effective dose, in mg/kg
Procedure: The mouse grid consists of a perspex cage with wire grid bottom and a perspex lid, on which is placed a microphone sensitive to the frequency of a mouse squeak. A stimulator with motordriven potentiometer applies a sequence of square wave impulses of continuously increasing milliamperage to the grid. Frequency of impulses 20 cycles/sec., duration 5 msec. Milliamperage is recorded on a digital amperemeter connected to the stimulator. Activation of the microphone by a mouse-squeak cuts off the current and the final milliamperage appears on the meter.
Five mice are used for each dose level. Each mouse serves as its own control.
Prior to the administration of test substance the animals are placed on the grid one at a time, and the pain threshold is determined by increasing the current intensity until the mouse squeaks. The pain threshold may be read on the milliamperemeter. Fifteen minutes and 30 minutes after administration of test substance the mice are tested again and the pain thresholds recorded.
Analgesic effect is present, when the pain threshold is increased over the pre-dosing value (control value). The results are stated as % increase in pain threshold calculated on the basis of the control value.
The registration can also be done as an on-line procedure. In this case the punching instruction and punching cards will be provided automatically and the results will be registered as a minimal effective dose (MED) determined after van der Waerdens X-test.

[7] = rats, p.o., strongest effect within first 6 hours

Compound	IC50 [1] [nM]	ED50 [2] [mg/kg]	Ratio catalep./Amphet. [3]	ED50 [3, 7] [mg/kg]	ED50 [4] [mg/kg]	LD50 [5] [mg/kg]	MED Grid Shock [6]	MePh antag. ED50 2 hr i.p. ([2]; mice, test substance i.p., 2 hr before methylphenidate 60 mg/kg s.c., 120 min) [mg/kg]	Catalep. (catalepsy wire mesh, rat, max, ED50) [3, 7] [mg/kg]	Amphetamine antag. ED50 p.o. [4] [mg/kg]
OCCCN1CCN([C@@H]2C[C@H](c3ccc(F)cc3)c3ccc(F)cc32)CC1 (relative stereo) [Lu 14-048]	46	–	–	–	–	–	–	–	–	–
OCCCN1CCN([C@@H]2C[C@@H](c3ccc(F)cc3)c3ccc(Cl)cc32)CC1 (relative stereo) [Lu 17-127]	–	0.4	1.7	0.5	0.3	80	0.31	–	–	–
OCCN1CCN([C@@H]2C[C@@H](c3ccccc3)c3ccc(C(F)(F)F)cc32)CC1 (relative stereo) [Lu 18-089]	–	2.2	0.5	2.7	5	69	2.5	–	–	–
CN1CCN(C2CC(c3ccc(F)cc3)c3ccc(F)cc32)CC1 (single isomer, unassigned; (+)) [Lu 17-151, (+) 1-Methyl-4-(3-(4'-fluorophenyl)-6-fluoro-1-indanyl) piperazine]	–	–	2.7	–	–	113	0.63	1.0	16.4	6.1
CSc1ccc2c(c1)C(N1CCN(CCCO)CC1)CC2c1ccc(F)cc1 (stereo not drawn) [Lu 17-068]	–	0.8	0.7	1.3	1.8	94	0.31	–	–	–
Cc1ccc2c(c1)C(N1CCN(C(C)C)CC1)CC2c1ccc(F)cc1 (stereo not drawn) [Lu 17-069]	–	0.8	1.2	6.7	5.6	56	0.63	–	–	–
Fc1ccc(C2CC(N3CCN(CC4CCCCC4)CC3)c3cc(F)ccc32)cc1 (stereo not drawn) [Lu 17-100]	–	4	–	40	> 40	93	10	–	–	–
CSc1ccc2c(c1)C(N1CCN(C(C)C)CC1)CC2c1ccc(F)cc1 (stereo not drawn) [Lu 17-111]	–	2.3	0.9	7.1	7.8	69	1.3	–	–	–
CC(C)N1CCN(C2CC(c3ccc(F)cc3)c3ccc(Cl)cc32)CC1 (stereo not drawn) [Lu 17-129]	–	0.8	0.4	0.8	1.8	80	5	–	–	–
CC(O)CN1CCN(C2CC(c3ccc(F)cc3)c3ccc(F)cc32)CC1 (stereo not drawn) [Lu 17-143, 1-(2-hydroxy-1-propyl)-4-(3-(4'-fluorophenyl)-6-fluoro-1-indanyl)piperazine]	–	1.2	3.1	16.6	5.4	130	< 1.3	–	–	–
